# ChEMBL document CHEMBL4041516, “SAR study of 5-alkynyl substituted quinazolin-4(3H)-ones as phosphoinositide 3-kinase delta (PI3Kδ) inhibitors” (Eur J Med Chem, 2017)
# What was measured:
# [1] = molecular target: T1, Phosphatidylinositol 4,5-bisphosphate 3-kinase catalytic subunit delta isoform (Homo sapiens, UniProt O00329); experiment: Inhibition of PI3Kdelta (unknown origin) using PIP2 as substrate measured after 30 mins by HTRF assay
# T1 sequence (O00329 whole entry): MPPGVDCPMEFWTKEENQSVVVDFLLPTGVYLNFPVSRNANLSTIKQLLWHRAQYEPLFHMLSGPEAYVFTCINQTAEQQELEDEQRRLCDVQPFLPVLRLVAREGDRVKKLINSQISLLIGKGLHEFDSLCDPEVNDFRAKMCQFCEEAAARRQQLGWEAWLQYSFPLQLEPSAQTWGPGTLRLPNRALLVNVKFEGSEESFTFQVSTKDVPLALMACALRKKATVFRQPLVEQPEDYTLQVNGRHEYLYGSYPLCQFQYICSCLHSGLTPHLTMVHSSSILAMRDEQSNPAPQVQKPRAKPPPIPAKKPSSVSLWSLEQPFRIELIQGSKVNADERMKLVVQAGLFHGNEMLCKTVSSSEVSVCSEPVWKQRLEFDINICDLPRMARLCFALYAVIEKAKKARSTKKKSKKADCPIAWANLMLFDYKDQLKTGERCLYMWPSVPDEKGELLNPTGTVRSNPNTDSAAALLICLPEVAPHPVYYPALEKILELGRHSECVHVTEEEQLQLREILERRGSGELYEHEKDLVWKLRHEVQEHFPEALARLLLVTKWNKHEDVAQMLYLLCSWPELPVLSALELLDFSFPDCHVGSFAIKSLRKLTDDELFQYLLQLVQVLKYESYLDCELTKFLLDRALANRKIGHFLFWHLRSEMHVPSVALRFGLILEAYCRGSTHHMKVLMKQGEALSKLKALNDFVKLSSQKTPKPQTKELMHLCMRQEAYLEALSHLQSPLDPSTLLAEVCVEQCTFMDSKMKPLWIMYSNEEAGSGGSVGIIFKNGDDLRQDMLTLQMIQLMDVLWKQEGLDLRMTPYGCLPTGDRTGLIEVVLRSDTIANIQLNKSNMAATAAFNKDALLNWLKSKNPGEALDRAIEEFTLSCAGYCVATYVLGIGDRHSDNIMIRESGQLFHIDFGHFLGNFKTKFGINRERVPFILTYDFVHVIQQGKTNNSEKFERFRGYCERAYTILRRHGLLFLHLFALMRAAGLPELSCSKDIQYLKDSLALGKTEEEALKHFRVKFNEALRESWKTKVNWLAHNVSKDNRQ
# [2] = test system: SU-DHL-6; experiment: Antiproliferative activity against human SUDHL6 cells measured after 72 hrs by alamar blue assay; format: functional, cell-based; settings: SU-DHL-6, 72 h
# [3] = Antiproliferative activity against human WSU-DLCL2 cells measured after 72 hrs by alamar blue assay; format: functional, cell-based; settings: WSUDLCL2, 72 h
# [4] = test system: MOLT-4; experiment: Antiproliferative activity against human MOLT4 cells measured after 72 hrs by alamar blue assay; format: functional, cell-based; settings: MOLT-4, 72 h
# [5] = test system: NAMALVA; experiment: Antiproliferative activity against human NAMALWA cells measured after 72 hrs by alamar blue assay; format: functional, cell-based
# [6] = test system: HT; experiment: Antiproliferative activity against human HT cells measured after 72 hrs by alamar blue assay; format: functional, cell-based
# [7] = test system: Pfeiffer; experiment: Antiproliferative activity against human Pfeiffer cells measured after 72 hrs by alamar blue assay; format: functional, cell-based
# [8] = test system: KARPAS-422; experiment: Antiproliferative activity against human KARPAS422 cells measured after 72 hrs by alamar blue assay; format: functional, cell-based; settings: KARPAS-422, 72 h
# [9] = test system: SU-DHL-1; experiment: Antiproliferative activity against human SU-DHL1 cells measured after 72 hrs by alamar blue assay; format: functional, cell-based; settings: SU-DHL-1, 72 h
# [10] = test system: SU-DHL10; experiment: Antiproliferative activity against human SU-DHL10 cells measured after 72 hrs by alamar blue assay; format: functional, cell-based; settings: SU-DHL10, 72 h
# [11] = molecular target: Voltage-gated inwardly rectifying potassium channel KCNH2 (Homo sapiens, UniProt Q12809); experiment: Inhibition of human ERG; settings: read-out: IC50
# [12] = molecular target: Phosphatidylinositol 4,5-bisphosphate 3-kinase catalytic subunit alpha isoform (Homo sapiens, UniProt P42336); experiment: Inhibition of PI3Kalpha (unknown origin) using PIP2 as substrate measured after 30 mins by HTRF assay
# Phosphatidylinositol 4,5-bisphosphate 3-kinase catalytic subunit alpha isoform, sequence (P42336 whole entry, canonical isoform): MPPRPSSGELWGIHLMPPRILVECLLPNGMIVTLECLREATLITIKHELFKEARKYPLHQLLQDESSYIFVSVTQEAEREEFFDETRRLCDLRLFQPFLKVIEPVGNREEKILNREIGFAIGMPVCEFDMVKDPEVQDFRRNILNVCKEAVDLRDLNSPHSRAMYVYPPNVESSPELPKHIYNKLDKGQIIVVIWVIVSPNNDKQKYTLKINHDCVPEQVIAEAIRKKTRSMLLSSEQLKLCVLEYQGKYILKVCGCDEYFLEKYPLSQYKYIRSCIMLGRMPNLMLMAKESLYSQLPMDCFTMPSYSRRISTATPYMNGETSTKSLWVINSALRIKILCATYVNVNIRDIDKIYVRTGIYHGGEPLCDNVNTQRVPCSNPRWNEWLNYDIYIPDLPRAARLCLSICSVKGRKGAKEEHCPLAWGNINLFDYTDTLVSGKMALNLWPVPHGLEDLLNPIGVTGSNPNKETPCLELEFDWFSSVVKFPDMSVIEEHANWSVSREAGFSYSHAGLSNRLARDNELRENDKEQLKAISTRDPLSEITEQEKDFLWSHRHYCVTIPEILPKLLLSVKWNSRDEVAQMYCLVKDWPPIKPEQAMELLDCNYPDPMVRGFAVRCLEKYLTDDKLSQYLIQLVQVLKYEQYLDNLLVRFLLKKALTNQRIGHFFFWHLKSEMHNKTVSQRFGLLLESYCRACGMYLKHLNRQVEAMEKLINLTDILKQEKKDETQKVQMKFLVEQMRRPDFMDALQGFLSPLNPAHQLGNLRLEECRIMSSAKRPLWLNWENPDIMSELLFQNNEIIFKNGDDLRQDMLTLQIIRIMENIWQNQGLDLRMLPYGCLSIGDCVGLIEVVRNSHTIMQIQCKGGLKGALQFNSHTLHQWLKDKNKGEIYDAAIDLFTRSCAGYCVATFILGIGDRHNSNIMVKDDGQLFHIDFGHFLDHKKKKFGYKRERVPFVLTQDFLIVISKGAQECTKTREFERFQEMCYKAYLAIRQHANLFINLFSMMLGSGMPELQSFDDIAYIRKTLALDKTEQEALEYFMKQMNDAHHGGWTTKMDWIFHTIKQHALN
# [13] = test system: SUD4; experiment: Antiproliferative activity against human SU-DHL4 cells measured after 72 hrs by alamar blue assay; format: functional, cell-based; settings: SU-DHL-4, 72 h
# [14] = molecular target: Phosphatidylinositol 4,5-bisphosphate 3-kinase catalytic subunit gamma isoform (Homo sapiens, UniProt P48736); experiment: Inhibition of PI3Kgamma (unknown origin) using PIP2 as substrate measured after 30 mins by HTRF assay
# Phosphatidylinositol 4,5-bisphosphate 3-kinase catalytic subunit gamma isoform, sequence (P48736 whole entry, canonical isoform): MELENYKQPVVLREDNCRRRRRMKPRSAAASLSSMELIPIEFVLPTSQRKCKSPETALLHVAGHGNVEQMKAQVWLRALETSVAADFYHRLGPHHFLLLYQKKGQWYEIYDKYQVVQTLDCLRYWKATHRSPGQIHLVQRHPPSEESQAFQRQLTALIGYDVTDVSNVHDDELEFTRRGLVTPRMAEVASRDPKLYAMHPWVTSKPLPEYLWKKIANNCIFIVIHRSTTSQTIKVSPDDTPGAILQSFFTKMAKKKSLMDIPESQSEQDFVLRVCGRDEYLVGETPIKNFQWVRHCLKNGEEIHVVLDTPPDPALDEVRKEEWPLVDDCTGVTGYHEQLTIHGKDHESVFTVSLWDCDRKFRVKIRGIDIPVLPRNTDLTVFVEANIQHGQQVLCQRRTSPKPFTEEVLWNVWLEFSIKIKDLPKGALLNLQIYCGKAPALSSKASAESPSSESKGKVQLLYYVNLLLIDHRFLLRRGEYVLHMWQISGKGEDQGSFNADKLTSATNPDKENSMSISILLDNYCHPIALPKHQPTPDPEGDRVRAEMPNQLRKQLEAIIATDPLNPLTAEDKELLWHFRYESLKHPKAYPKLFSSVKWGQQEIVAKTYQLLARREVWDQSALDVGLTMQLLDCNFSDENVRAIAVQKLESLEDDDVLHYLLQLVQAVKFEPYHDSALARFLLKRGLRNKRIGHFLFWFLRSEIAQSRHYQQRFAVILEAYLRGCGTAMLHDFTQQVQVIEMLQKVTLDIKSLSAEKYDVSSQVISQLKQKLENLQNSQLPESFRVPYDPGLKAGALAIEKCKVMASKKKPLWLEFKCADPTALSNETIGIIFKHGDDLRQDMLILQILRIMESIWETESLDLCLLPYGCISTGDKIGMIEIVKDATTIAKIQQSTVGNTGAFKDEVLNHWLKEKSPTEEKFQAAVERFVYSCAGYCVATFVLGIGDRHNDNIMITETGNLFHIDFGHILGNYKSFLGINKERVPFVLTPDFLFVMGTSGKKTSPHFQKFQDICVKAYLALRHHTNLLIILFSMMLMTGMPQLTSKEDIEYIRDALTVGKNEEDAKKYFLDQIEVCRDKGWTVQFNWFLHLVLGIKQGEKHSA
# [15] = molecular target: Phosphatidylinositol 4,5-bisphosphate 3-kinase catalytic subunit beta isoform (Homo sapiens, UniProt P42338); experiment: Inhibition of PI3Kbeta (unknown origin) using PIP2 as substrate measured after 30 mins by HTRF assay
# Phosphatidylinositol 4,5-bisphosphate 3-kinase catalytic subunit beta isoform, sequence (P42338 whole entry, canonical isoform): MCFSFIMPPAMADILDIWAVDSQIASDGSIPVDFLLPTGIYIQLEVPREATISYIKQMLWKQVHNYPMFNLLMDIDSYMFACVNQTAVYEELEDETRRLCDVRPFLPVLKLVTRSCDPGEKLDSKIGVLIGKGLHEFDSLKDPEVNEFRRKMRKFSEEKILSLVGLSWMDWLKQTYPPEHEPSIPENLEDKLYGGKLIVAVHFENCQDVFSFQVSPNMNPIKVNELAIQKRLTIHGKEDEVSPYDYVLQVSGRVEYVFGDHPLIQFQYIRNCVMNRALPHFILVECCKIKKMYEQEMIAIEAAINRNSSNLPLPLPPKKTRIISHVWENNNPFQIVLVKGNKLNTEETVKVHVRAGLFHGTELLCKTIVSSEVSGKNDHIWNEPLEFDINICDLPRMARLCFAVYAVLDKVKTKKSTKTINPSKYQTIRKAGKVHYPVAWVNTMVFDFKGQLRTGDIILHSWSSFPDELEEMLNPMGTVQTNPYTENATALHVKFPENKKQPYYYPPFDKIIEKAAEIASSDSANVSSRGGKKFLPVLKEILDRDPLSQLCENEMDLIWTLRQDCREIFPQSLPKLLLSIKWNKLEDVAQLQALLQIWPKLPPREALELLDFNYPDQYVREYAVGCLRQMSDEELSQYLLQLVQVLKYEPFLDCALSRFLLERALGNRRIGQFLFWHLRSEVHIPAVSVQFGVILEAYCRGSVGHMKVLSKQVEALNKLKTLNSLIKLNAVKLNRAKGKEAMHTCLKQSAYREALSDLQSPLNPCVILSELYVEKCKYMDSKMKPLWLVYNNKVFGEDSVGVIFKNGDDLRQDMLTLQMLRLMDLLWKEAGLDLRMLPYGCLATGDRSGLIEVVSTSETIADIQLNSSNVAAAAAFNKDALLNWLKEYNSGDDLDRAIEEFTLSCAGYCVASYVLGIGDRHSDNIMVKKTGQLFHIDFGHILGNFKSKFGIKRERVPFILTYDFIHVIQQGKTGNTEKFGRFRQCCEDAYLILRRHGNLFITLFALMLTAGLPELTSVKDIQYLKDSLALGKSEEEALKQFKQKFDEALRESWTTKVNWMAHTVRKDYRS
# [16] = molecular target: hERG (KCNH2) (Homo sapiens, UniProt Q12809); experiment: Inhibition of human ERG at 40 uM relative to control
# hERG (KCNH2), sequence (Q12809 whole entry): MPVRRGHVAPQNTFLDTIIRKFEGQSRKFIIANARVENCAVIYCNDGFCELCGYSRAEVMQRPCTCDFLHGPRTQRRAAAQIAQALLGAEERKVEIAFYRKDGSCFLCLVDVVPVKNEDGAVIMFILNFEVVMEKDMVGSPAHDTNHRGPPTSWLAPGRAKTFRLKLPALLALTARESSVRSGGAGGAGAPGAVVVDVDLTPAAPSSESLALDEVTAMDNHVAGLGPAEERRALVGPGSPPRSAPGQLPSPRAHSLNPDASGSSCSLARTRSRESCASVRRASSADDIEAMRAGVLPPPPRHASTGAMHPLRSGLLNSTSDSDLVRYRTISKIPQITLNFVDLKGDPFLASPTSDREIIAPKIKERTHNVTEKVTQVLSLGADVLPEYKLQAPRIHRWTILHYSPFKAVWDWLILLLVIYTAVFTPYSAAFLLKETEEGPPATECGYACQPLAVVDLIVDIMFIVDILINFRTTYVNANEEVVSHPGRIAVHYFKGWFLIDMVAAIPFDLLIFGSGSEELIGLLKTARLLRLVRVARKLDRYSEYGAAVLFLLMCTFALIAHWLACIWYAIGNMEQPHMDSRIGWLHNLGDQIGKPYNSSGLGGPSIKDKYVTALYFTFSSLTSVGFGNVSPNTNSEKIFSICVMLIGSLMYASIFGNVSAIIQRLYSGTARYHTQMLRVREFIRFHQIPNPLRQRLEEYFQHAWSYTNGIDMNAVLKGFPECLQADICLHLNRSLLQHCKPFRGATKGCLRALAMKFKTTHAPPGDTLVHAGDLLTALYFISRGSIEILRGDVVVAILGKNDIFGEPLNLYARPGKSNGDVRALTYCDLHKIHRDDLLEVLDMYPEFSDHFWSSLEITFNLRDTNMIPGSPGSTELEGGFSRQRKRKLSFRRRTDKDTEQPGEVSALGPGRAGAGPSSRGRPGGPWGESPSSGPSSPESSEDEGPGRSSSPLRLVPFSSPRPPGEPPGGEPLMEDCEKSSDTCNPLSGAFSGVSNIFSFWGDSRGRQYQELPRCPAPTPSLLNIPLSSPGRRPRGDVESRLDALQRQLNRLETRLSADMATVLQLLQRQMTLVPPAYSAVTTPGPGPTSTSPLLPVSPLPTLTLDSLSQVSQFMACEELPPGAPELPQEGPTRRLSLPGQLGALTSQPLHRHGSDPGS
SMILES,IC50 [1] [nM],IC50 [2] [nM],other results
N#Cc1c(N)ncnc1N1CCC[C@H]1c1nc2cccc(C#Cc3ccccn3)c2c(=O)n1-c1ccccc1,> 300,1900,–
CC[C@H](Nc1ncnc2[nH]cnc12)c1nc2cccc(F)c2c(=O)n1-c1ccccc1 [IDELALISIB],–,118,IC50 [3]: > 10000 nM; IC50 [4]: > 10000 nM; IC50 [5]: > 10000 nM; IC50 [6]: > 10000 nM; IC50 [7]: 6800 nM; IC50 [8]: 8100 nM; IC50 [9]: > 10000 nM; IC50 [10]: > 10000 nM
C=CC(O)C(C)(C)N1CCN(CC#Cc2cccc3nc([C@@H]4CCCN4c4ncnc(N)c4C#N)n(-c4ccccc4)c(=O)c23)CC1 (stereo not given in full),60.2,372,–
CC(C)(CO)N1CCN(CC#Cc2cccc3nc([C@@H]4CCCN4c4ncnc(N)c4C#N)n(-c4ccccc4)c(=O)c23)CC1,67.1,339,–
CC(C)(F)CN1CCN(CC#Cc2cccc3nc([C@@H]4CCCN4c4ncnc(N)c4C#N)n(-c4ccccc4)c(=O)c23)CC1,170,2820,–
CC(C)(C)N1CCN(CC#Cc2cccc3nc([C@@H]4CCCN4c4ncnc(N)c4C#N)n(-c4ccccc4)c(=O)c23)CC1,43,282,–
CC(COC(F)F)N1CCN(CC#Cc2cccc3nc([C@@H]4CCCN4c4ncnc(N)c4C#N)n(-c4ccccc4)c(=O)c23)CC1 (stereo not given in full),188,2000,–
N#Cc1c(N)ncnc1N1CCC[C@H]1c1nc2cccc(C#CCN3CCC(C4CC(F)C4)CC3)c2c(=O)n1-c1ccccc1 (stereo not given in full),78.1,526,–
N#Cc1c(N)ncnc1N1CCC[C@H]1c1nc2cccc(C#Cc3cccs3)c2c(=O)n1-c1ccccc1,41.5,1680,–
N#Cc1c(N)ncnc1N1CCC[C@H]1c1nc2cccc(C#Cc3cccnc3)c2c(=O)n1-c1ccccc1,> 300,1730,–
Nc1nc(N)nc(N2CCC[C@H]2c2nc3cccc(C#CCCCC(=O)N4CCOCC4)c3c(=O)n2-c2ccccc2)n1,> 300,> 10000,–
N#Cc1c(N)ncnc1N1CCC[C@H]1c1nc2cccc(C#CCN3CCC(C4CC(F)(F)C4)CC3)c2c(=O)n1-c1ccccc1,141,724,–
N#Cc1c(N)ncnc1N1CCC[C@H]1c1nc2cccc(C#CCN3C[C@@H]4C[C@H]3CN4)c2c(=O)n1-c1ccccc1,135,1260,–
N#Cc1c(N)ncnc1N1CCC[C@H]1c1nc2cccc(C#Cc3cccc(F)c3)c2c(=O)n1-c1ccccc1,> 300,3860,–
N#Cc1c(N)ncnc1N1CCC[C@H]1c1nc2cccc(C#CCN3CCN(CC4CC4)CC3)c2c(=O)n1-c1ccccc1,107,705,–
CC(C)N1CCN(Cc2cnc(C#Cc3cccc4nc([C@@H]5CCCN5c5ncnc(N)c5C#N)n(-c5ccccc5)c(=O)c34)s2)CC1,> 300,1150,–

# Further lines, with some results ahead:
IC50 [1] [nM],IC50 [2] [nM],SMILES,other results
112,1900,CC[C@H](Nc1ncnc(N)c1C#N)c1nc2cccc(C#CCCCC(=O)N3CCCC3)c2c(=O)n1-c1ccccc1,–
16.8,640,Cc1nc(N)nc(N2CC[C@H]2c2nc3cccc(C#CCCCC(=O)N4CCOCC4)c3c(=O)n2-c2ccccc2)c1C#N,–
620,7320,N#Cc1c(N)ncnc1N1CC[C@H]1c1nc2cccc(C#CCCCC(=O)N3CCOCC3)c2c(=O)n1-c1ccccc1,–
19.6,862,Cc1nc(N)nc(N2CC[C@H]2c2nc3cccc(C#CCCCC(=O)N4CCCC4)c3c(=O)n2-c2ccccc2)c1C#N,–
80.2,1410,CC(F)CN1CCN(CC#Cc2cccc3nc([C@@H]4CCCN4c4ncnc(N)c4C#N)n(-c4ccccc4)c(=O)c23)CC1 (stereo not given in full),–
440,7840,N#Cc1c(N)ncnc1N1CC[C@H]1c1nc2cccc(C#CCCCC(=O)N3CCCC3)c2c(=O)n1-c1ccccc1,–
96.8,1430,CC[C@H](Nc1ncnc(N)c1C#N)c1nc2cccc(C#CCCCC(=O)N3CCOCC3)c2c(=O)n1-c1ccccc1,–
> 300,> 10000,CCOC(=O)c1cnc(C#Cc2cccc3nc([C@@H]4CCCN4c4ncnc(N)c4C#N)n(-c4ccccc4)c(=O)c23)s1,–
11.8,178,Cc1nc(N)nc(N2CCC[C@H]2c2nc3cccc(C#CCCCC(=O)N4CCOCC4)c3c(=O)n2-c2ccccc2)c1C#N,–
107,1160,N#Cc1c(N)ncnc1N1CCC[C@H]1c1nc2cccc(C#CCN3CCOCC3)c2c(=O)n1-c1ccccc1,–
12.2,26.8,CC[C@H](Nc1nc(N)nc(N)c1C#N)c1nc2cccc(C#CCCCO)c2c(=O)n1-c1ccccc1,–
110,1180,CC[C@H](Nc1ncnc2[nH]cnc12)c1nc2cccc(C#CCCCC(=O)N3CCOCC3)c2c(=O)n1-c1ccccc1,–
11.5,99,N#Cc1c(N)ncnc1N1CCC[C@H]1c1nc2cccc(C#CCCCC(=O)N3CCCC3)c2c(=O)n1-c1ccccc1,–
6.73,37.2,CC[C@H](Nc1nc(N)nc(N)c1C#N)c1nc2cccc(C#CCCCC(=O)N3CCCC3)c2c(=O)n1-c1ccccc1,IC50 [11]: > 40000 nM; IC50 [12]: 624 nM; IC50 [13]: 1700 nM; IC50 [3]: 6800 nM; IC50 [4]: 6700 nM; IC50 [5]: 6200 nM; IC50 [6]: 7900 nM; IC50 [14]: 125 nM; IC50 [7]: 2200 nM; IC50 [15]: 530 nM; IC50 [8]: 2100 nM; inhibition at 40 µM [16]: 39.3%; IC50 [9]: 4900 nM; IC50 [10]: 1800 nM
97.7,216,CC(C)(C)N1CCN(C(=O)C#Cc2cccc3nc([C@@H]4CCCN4c4ncnc(N)c4C#N)n(-c4ccccc4)c(=O)c23)CC1,–
70,1120,N#Cc1c(N)ncnc1N1CCC[C@H]1c1nc2cccc(C#CC(=O)N3CCOCC3)c2c(=O)n1-c1ccccc1,–
